Assay results as given in paper PMC7076710, “Synthesis, Identification, and Structure–Activity Relationship Analysis of GATA4 and NKX2-5 Protein–Protein Interaction Modulators” (Journal of Medicinal Chemistry, 2019).

Target: T1, GATA4–NKX2-5 transcriptional synergy (Mus musculus, UniProt P42582+Q08369)
T1 construct: expressed in transfected cells; host or cells: COS-1
Experiment: GATA4–NKX2-5 transcriptional synergy luciferase reporter assay (3xNKE reporter, COS-1 cells)
Type: cell-based
Procedure: To screen compounds for the GATA4–NKX2-5 interaction, we have developed a luciferase reporter assay based on their property to activate gene transcription synergistically through the NKX2-5 binding site on DNA.[28] In this assay, we transfected mammalian COS-1 cells with protein expression vectors for GATA4 and NKX2-5 proteins together with artificial luciferase reporter vector containing three high affinity binding sites for NKX2-5 (NKE). […] All 257 compounds were tested in two concentrations, 3 and 10 μM. Compounds either inhibited, enhanced, or had no effect on the GATA4–NKX2-5 transcriptional synergy. To investigate the selectivity of the active compounds, we tested their effects on NKX2-5 transcriptional activity by using the same luciferase reporter vector as in transcriptional synergy assay with three NKE sites (Figure 3B). Furthermore, we used GATA luciferase reporter assay to examine if compounds have an effect on GATA4 transcriptional activity. In this assay, we cotransfected the cells with a GATA4 protein expression vector and a reporter vector with tandem GATA4 binding sites (Figure 3C). Previously we have reported that compound 1 inhibited the GATA4–NKX2-5 transcriptional synergy at micromolar concentrations (IC50 = 3 μM).[29]
The plasmids expressing mouse GATA4 protein, pMT2-GATA4, and empty pMT2 were gifts from D. B. Wilson (Department of Pediatrics, St. Louis Children’s Hospital, St. Louis, MO).[44] The plasmids expressing mouse NKX2-5 protein, pMT2-NKX2-5, have been described earlier.[28] The luciferase reporter plasmid used in GATA4–NKX2-5 transcriptional synergy assay and NKX transcriptional assay, pGL3-3xHA, contains three high affinity binding sites for NKX2-5.[28] The luciferase reporter plasmid used in GATA transcriptional assay, NP-112, contains tandem GATA-sites and minimal promoter of rat brain natriuretic peptide (BNP) gene.[45] The pGL3-BNP luciferase reporter containing −534/+4 bp rat BNP proximal promoter described previously was used in hypertrophy assay.[46]
The primary screening assay of compounds’ effect on GATA4–NKX2-5 transcriptional synergy and COS-1 cell culturing has been described earlier.[33] […] (Kinnunen et al., unpublished observation). Briefly, COS-1 cells were seeded at 14 000 cells/well in Isoplate-96 microplates (PerkinElmer, Turku, Finland) and grown overnight. The cells were transfected with the luciferase reporter plasmid pGL3-3xHA 100 ng/well and equal amounts of expression plasmids pMT2-GATA4 and pMT2-NKX2-5 total 50 ng/well. To verify the synergistic effect, the cells were transfected with pMT2-GATA4 or pMT2-NKX2-5 25 ng/well, and the total DNA concentration was adjusted to 50 ng/well with empty pMT2 plasmid. In NKX2-5 and GATA4 luciferase reporter assays, the cells were transfected with reporter plasmid pGL3-3xHA or NP-112 (100 ng/well) and expression plasmid pMT2-NKX2-5 or pMT2-GATA4 (25 ng/well). The ratio of DNA/transfection reagent (Fugene 6, Promega) was 1:3 in all assays. The transfections were performed in serum and antibiotics free media for 6 h. The cells were treated with compounds or vehicle (0.1% DMSO) for 24 h, and the luminescence was measured using neolite Reporter Gene Assay System (PerkinElmer, Turku, Finland) and Victor2 plate reader (PerkinElmer, Turku, Finland).
Raw luciferase data were analyzed in Excel, and clear outliers were removed from triplicates by using the Grubb’s test. Data analysis was performed using R.[49] The luciferase data were first normalized on the basis of the combined mean value of controls. For data visualization and creation of figures, the following R packages were used: ggplot2, cowplot, RColorBrewer, and pheatmap. The heatmaps of the toxicity data were produced with GraphPad Prism 7.00 (GraphPad Software, La Jolla, CA). Statistical significance of luciferase reporter assay data was evaluated by randomized block analysis of variance followed by Dunnett’s post hoc test. […]

[1] = COS-1, 3 µM, luciferase reporter activity, % of control
[2] = COS-1, 10 µM, luciferase reporter activity, % of control
[3] = COS-1, compound at 3 µM, luciferase reporter activity, % of control
[4] = COS-1, compound at 10 µM, luciferase reporter activity, % of control
[5] = COS-1, compound 3 µM, luciferase reporter activity relative to control
[6] = COS-1, compound 3 µM, luciferase reporter activity, spread in separate STDEV column
[7] = COS-1, compound 10 µM, luciferase reporter activity, spread in separate STDEV column
[8] = COS-1, compound 10 µM, luciferase reporter activity relative to control
[9] = 3 µM compound, GATA4–NKX2-5 transcriptional synergy reporter, COS-1 cells
[10] = 10 µM compound, GATA4–NKX2-5 transcriptional synergy reporter, COS-1 cells
[11] = COS-1, GATA4-NKX2-5 transcriptional synergy luciferase reporter assay, compound at 3 µM
[12] = COS-1, GATA4-NKX2-5 transcriptional synergy luciferase reporter assay, compound at 10 µM

T1 sequence (Q08369 whole entry): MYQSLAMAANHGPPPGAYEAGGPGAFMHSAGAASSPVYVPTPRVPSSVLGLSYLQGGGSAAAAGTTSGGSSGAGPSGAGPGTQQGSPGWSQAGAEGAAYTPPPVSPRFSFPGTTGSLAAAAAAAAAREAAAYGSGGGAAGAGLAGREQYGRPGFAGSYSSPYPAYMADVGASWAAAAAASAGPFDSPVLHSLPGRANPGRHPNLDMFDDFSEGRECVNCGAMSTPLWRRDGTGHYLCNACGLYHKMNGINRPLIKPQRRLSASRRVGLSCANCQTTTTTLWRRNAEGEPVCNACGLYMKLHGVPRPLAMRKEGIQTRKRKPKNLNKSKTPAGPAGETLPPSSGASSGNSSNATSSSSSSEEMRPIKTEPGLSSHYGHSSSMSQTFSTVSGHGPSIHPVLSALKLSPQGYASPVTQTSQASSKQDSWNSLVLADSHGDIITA
T1 sequence (P42582 whole entry): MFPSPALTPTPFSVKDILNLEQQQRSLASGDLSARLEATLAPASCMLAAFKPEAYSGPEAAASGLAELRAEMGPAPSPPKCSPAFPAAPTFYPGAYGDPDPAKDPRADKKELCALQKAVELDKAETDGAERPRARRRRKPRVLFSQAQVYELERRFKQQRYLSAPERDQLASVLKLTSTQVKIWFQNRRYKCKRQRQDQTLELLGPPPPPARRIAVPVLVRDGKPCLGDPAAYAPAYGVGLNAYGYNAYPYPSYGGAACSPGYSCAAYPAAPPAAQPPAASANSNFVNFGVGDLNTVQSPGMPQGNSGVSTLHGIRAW

Cc1onc(-c2ccccc2)c1N=Cc1ccc(N(CCO)CCO)cc1 [SI42]
activity at 3 µM [1]: 82.9% | activity at 10 µM [2]: 118%

Cc1cc(NC(=O)c2c(-c3cccc([N+](=O)[O-])c3)noc2C)ccc1C(C)C [SI52]
activity at 3 µM [3]: 93.1% | activity at 10 µM [4]: 91%

CCN(CC)C(=O)c1ccc(OCc2c(-c3ccccc3)noc2C)cc1 [Compound 36b]
activity at 3 µM [5]: 79.3%

N#Cc1ccc(NC(=O)c2cc(-c3ccco3)on2)cc1 [SI113]
activity at 3 µM [6]: 101% | activity at 10 µM [7]: 99.2%

CCCCCc1ccc(C(=S)Nc2c(-c3ccccc3)noc2C)cc1 [SI35]
activity at 3 µM [5]: 89.2% | activity at 10 µM [8]: 75.8%

CCN(CC)c1ccc(NC(=O)c2c(-c3ccc([N+](=O)[O-])cc3)noc2C)cc1 [Compound 39a]
activity at 3 µM [1]: 89.2% | activity at 10 µM [2]: 99.8%

COc1ccc(C(=O)Nc2c(-c3ccccc3)noc2C)cc1 [SI32]
activity at 3 µM [1]: 110% | activity at 10 µM [2]: 96.2%

CCN(CC)c1ccc(NCc2c[nH]nc2-c2ccc(F)cc2)cc1 [SI81]
activity at 3 µM [9]: 98.1% | activity at 10 µM [10]: 82.3%

CCc1cc(-c2onc(C)c2C(=O)Nc2ccc(N(CC)CC)cc2)no1 [SI75]
activity at 3 µM [6]: 97.5% | activity at 10 µM [7]: 88.8%

CCN(CC)c1ccc(/N=C/c2onc(-c3ccccc3)c2C(=O)Nc2ccc(N(CC)CC)cc2)cc1 [Compound 48]
activity at 3 µM [1]: 74.9% | activity at 10 µM [2]: 54.1%

CCc1noc(C)c1C(=O)Nc1ccc2oc(-c3ccccc3)cc(=O)c2c1 [SI50]
activity at 3 µM [9]: 91.4% | activity at 10 µM [10]: 97.4%

CCN(CC)c1ccc(NC(=O)c2c(SC)nsc2SC)cc1 [Compound 47w]
activity at 3 µM [9]: 115% | activity at 10 µM [10]: 112%

CCN(CC)c1ccc(NC(=O)c2c(-c3ccccc3)nnn2Cc2ccccc2)cc1 [SI60]
activity at 3 µM [5]: 97.8% | activity at 10 µM [8]: 72.4%

CC(=O)COC(=O)c1ccc(NC(=O)c2c(-c3ccccc3)noc2C)cc1 [SI3]
activity at 3 µM [6]: 85.8% | activity at 10 µM [7]: 98.5%

CCN(CC)c1ccc(N(CCF)C(=O)c2c(-c3ccccc3)noc2C)cc1 [Compound 25b]
activity at 3 µM [5]: 81.6%

CCN(CC)c1ccc(NC(=O)c2c(C)noc2-c2cc(CCOc3ccccn3)on2)cc1 [SI74]
activity at 3 µM [6]: 97.4% | activity at 10 µM [7]: 104%

Cc1onc(-c2ccccc2)c1C(=O)Nc1ccc(Nc2ccccc2)cc1 [SI5]
activity at 3 µM [1]: 105% | activity at 10 µM [2]: 89.1%

Cc1onc(-c2ccccc2)c1NC(=O)Nc1cccc(C(F)(F)F)c1 [SI24]
activity at 3 µM [1]: 109% | activity at 10 µM [2]: 86.5%

Cc1onc(-c2ccccc2)c1COc1ccc(C(=O)OCC(C)C)cc1 [Compound 35e]
activity at 3 µM [5]: 87.7%

Cc1onc(-c2ccccc2)c1C(=O)Nc1ccc2c(c1)C(=O)CCC2 [SI14]
activity at 3 µM [6]: 107% | activity at 10 µM [7]: 98.2%

CCN(CC)c1ccc(NC(=O)c2c(-c3ccccc3)nnn2CCOC)cc1 [Compound 47k]
activity at 3 µM [5]: 73.2%

CC(=O)c1ccc(OCc2cc(-c3ccc(CC(C)C)cc3)on2)cc1 [SI107]
activity at 3 µM [5]: 113% | activity at 10 µM [8]: 104%

CCN(CC)c1ccc(C(=O)Nc2c(C)noc2C)cc1 [SI21]
activity at 3 µM [1]: 113% | activity at 10 µM [2]: 97.4%

Cc1noc(-c2ccccc2)c1C(=O)Nc1ccc(CN(C)C)cc1 [SI71]
activity at 3 µM [5]: 109% | activity at 10 µM [8]: 105%

CCN(CC)c1ccc(NCc2c(-c3ccccc3)noc2C)cc1 [Compound 20, N^1,N^1-Diethyl-N^4-[(5-methyl-3-phenylisoxazol-4-yl)methyl]benzene-1,4-diamine]
activity at 3 µM [9]: 85.3% | activity at 10 µM [10]: 104%

Cc1cc(C(=O)Nc2ccc3oc(-c4ccccc4)cc(=O)c3c2)c(-c2ccccc2)o1 [SI101]
activity at 3 µM [9]: 90.8% | activity at 10 µM [10]: 78%

CCN(CC)c1ccc(NC(=O)c2c(-c3ccccc3)nnn2CC(C)C)cc1 [SI68]
activity at 3 µM [5]: 83.6% | activity at 10 µM [8]: 69.1%

CCN(c1ccc(NC(=O)c2c(C)noc2-c2snnc2C)cc1)C(C)C [Compound 62]
activity at 3 µM [9]: 31%

Cc1onc(-c2ccccc2)c1COc1ccc(C(=O)OCc2ccoc2)cc1 [Compound 35c]
activity at 3 µM [5]: 114% | activity at 10 µM [8]: 101%

CCCCCc1ccc(C(=O)Nc2c(-c3ccccc3)noc2C)cc1 [SI34]
activity at 3 µM [1]: 97.8% | activity at 10 µM [2]: 77.6%

CCN(CC)c1ccc(NC(=O)c2c(-c3ccccc3)nnn2CCC2OCCO2)cc1 [SI58]
activity at 3 µM [5]: 78.8% | activity at 10 µM [8]: 65%

Cc1onc(-c2ccccc2)c1NC(=O)OC(C)(C)C [SI17]
activity at 3 µM [1]: 99.2% | activity at 10 µM [2]: 87.1%

O=C(Nc1cc(-c2cccs2)n[nH]1)c1ccccc1 [SI128]
activity at 3 µM [11]: 110% | activity at 10 µM [12]: 69.3%

CCN(CCO)c1ccc(NC(=O)c2c(-c3ccccc3)noc2C)cc1 [Compound 4b]
activity at 3 µM [3]: 93.7%

O=C(Nc1ccc2oc(-c3ccccc3)cc(=O)c2c1)c1snnc1-c1ccccc1 [SI104]
activity at 3 µM [9]: 103% | activity at 10 µM [10]: 94.9%

Cc1cc(NC(=O)c2c(-c3ccccc3)noc2C)ncc1[N+](=O)[O-] [SI10]
activity at 3 µM [3]: 116% | activity at 10 µM [4]: 78.3%

CCN(CC)c1ccc(NCc2ccncc2)cc1 [SI41]
activity at 3 µM [5]: 110% | activity at 10 µM [8]: 100%

Cc1onc(-c2ccccc2)c1C(=O)Nc1ccc(C(=O)OCc2ccco2)cc1 [SI2]
activity at 3 µM [6]: 99.4% | activity at 10 µM [7]: 82.7%

CCC1(C)Oc2ccc(NC(=O)c3cnoc3-c3ccc(C)o3)cc2O1 (stereo not drawn) [SI125]
activity at 3 µM [11]: 106% | activity at 10 µM [12]: 91.7%

CCN(CC)c1ccc(NC(=O)c2c(C)noc2-c2noc(C)c2C)cc1 [SI73]
activity at 3 µM [6]: 86% | activity at 10 µM [7]: 97.9%

CCN(CC)c1ccc(NC(=O)c2c(-c3ccccc3[N+](=O)[O-])noc2C)cc1 [Compound 39h]
activity at 3 µM [3]: 89.5%

CCN(c1ccc(NC(=O)c2c(-c3ccccc3)noc2C)cc1N)C(C)C [Compound 9, N-[3-Amino-4-[ethyl(isopropyl)amino]phenyl]-5-methyl-3-phenylisoxazole-4-carboxamide]
activity at 3 µM [3]: 92.6%

CCN(CC)c1ccc(NCc2c[nH]nc2C2CCCCC2)cc1 [SI85]
activity at 3 µM [9]: 88.4% | activity at 10 µM [10]: 82.1%

Cc1onc(-c2ccccc2)c1/N=C/c1ccc(C(C)N(C)C)cc1 (stereo not drawn) [SI45]
activity at 3 µM [1]: 88.4% | activity at 10 µM [2]: 98.2%

O=C(Nc1cccc(N2CCCC2=O)c1)c1cc(-c2ccccc2)[nH]n1 [SI130]
activity at 3 µM [11]: 102% | activity at 10 µM [12]: 106%

Nc1c(/N=N/c2ccc([N+](=O)[O-])cc2)c(-c2ccccc2)nn1-c1ccccc1 [SI97]
activity at 3 µM [1]: 73.3% | activity at 10 µM [2]: 61.2%

Cc1onc(-c2ccc(Br)s2)c1C(=O)Nc1ccc(C(C)C)cc1 [SI116]
activity at 3 µM [6]: 99.4% | activity at 10 µM [7]: 97.2%

Cc1cc(-c2noc(C)c2C(=O)Nc2cccc(Cl)c2)no1 [SI136]
activity at 3 µM [11]: 83% | activity at 10 µM [12]: 82.5%

Cc1cc(NC(=O)c2c(C)noc2-c2ccccc2)ccc1C(C)C [SI72]
activity at 3 µM [5]: 102% | activity at 10 µM [8]: 95%
